According to ChEMBL document CHEMBL1151303, “New macrodiolide antibiotics, 11-O-monomethyl- and 11, 11'-O-dimethylelaiophylins, from Streptomyces sp. HKI-0113 and HKI-0114” (J Nat Prod, 1998):
In brackets after ≈: the same amount, converted by molar mass.

Tests used:
Bacillus subtilis = experiment: Antimicrobial activity against Bacillus subtilis ATCC 6633 by agar plate diffusion assay; type: functional
Staphylococcus aureus = experiment: Antimicrobial activity against Staphylococcus aureus 134/94 by agar plate diffusion assay; type: functional
Enterococcus faecium = experiment: Antimicrobial activity against Enterococcus faecium 1528 by agar plate diffusion assay; type: functional
Mycobacterium sp. = experiment: Antimicrobial activity against Mycobacterium sp. SG 987 by agar plate diffusion assay; type: functional
Candida albicans = experiment: Antimicrobial activity against Candida albicans by agar plate diffusion assay; type: functional
L929 = experiment: Cytotoxicity against mouse L929 cells after 72 hrs by methylene blue staining; type: cell-based; conditions: L929, 72 h
K562 = experiment: Cytotoxicity against human K562 cells after 72 hrs; type: functional, cell-based; conditions: K562, 72 h
HeLa = experiment: Cytotoxicity against human HeLa cells by methylene blue staining; type: functional, cell-based

CC[C@@H]1[C@@H](C)O[C@@](OC)([C@@H](C)[C@H](O)[C@H](C)[C@H]2OC(=O)/C=C/C=C/[C@H](C)[C@@H]([C@@H](C)[C@@H](O)[C@H](C)[C@@]3(OC)C[C@@H](O[C@H]4C[C@H](O)[C@H](O)[C@H](C)O4)[C@H](CC)[C@@H](C)O3)OC(=O)/C=C/C=C/[C@@H]2C)C[C@H]1O[C@H]1C[C@H](O)[C@H](O)[C@H](C)O1
inhibition zone (IZ) (Bacillus subtilis): 23 mm
inhibition zone (IZ) (Staphylococcus aureus): 13 mm
inhibition zone (IZ) (Enterococcus faecium): 17 mm
inhibition zone (IZ) (Mycobacterium sp.): 15 mm
inhibition zone (IZ) (Candida albicans): 0 mm
IC50 (L929): 2.4 µg/mL (≈ 2.28 µM)
IC50 (K562): 1.3 µg/mL (≈ 1.23 µM)
IC50 (HeLa): 2.2 µg/mL (≈ 2.09 µM)
